Data as given in BindingDB's records for PubMed 11160626 (Japan Tobacco, 2001).
pKi: −log10 of the molar value.

Legend:
Cannabinoid receptor 1 [1] = molecular target: Cannabinoid receptor 1 (Rattus norvegicus, UniProt P20272)
Cannabinoid receptor 2 [2] = molecular target: T1, Cannabinoid receptor 2 (Rattus norvegicus, UniProt Q9QZN9)
T1 sequence (Q9QZN9 whole entry): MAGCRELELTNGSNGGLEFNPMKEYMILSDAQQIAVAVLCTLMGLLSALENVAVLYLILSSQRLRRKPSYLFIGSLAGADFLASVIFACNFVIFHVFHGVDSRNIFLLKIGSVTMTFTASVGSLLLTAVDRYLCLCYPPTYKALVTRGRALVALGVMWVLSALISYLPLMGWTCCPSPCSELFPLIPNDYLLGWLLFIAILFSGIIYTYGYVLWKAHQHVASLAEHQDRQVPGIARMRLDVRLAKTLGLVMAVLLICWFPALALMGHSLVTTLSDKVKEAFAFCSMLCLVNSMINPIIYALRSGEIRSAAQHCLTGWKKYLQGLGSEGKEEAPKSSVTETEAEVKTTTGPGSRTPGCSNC

Cannabinoid receptor 1 [3] = molecular target: Cannabinoid receptor 1 (Mus musculus, UniProt P47746)
Cannabinoid receptor 1 (Mus musculus, UniProt P47746), sequence (P47746 whole entry): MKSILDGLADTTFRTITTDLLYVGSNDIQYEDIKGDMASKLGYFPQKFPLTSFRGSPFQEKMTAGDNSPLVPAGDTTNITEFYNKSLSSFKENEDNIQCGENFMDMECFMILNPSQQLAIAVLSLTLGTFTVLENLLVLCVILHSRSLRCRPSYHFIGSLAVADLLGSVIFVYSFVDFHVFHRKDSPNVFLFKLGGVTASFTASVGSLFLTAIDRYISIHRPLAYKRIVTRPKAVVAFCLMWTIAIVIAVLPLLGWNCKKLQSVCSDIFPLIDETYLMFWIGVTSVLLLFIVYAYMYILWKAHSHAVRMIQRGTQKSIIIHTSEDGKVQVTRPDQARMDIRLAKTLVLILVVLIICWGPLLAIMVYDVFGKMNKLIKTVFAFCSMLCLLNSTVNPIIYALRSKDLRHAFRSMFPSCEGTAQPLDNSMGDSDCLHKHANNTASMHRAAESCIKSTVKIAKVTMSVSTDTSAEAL

Cannabinoid receptor 2 [4] = molecular target: Cannabinoid receptor 2 (Mus musculus, UniProt P47936)
Cannabinoid receptor 2 (Mus musculus, UniProt P47936), sequence (P47936 whole entry): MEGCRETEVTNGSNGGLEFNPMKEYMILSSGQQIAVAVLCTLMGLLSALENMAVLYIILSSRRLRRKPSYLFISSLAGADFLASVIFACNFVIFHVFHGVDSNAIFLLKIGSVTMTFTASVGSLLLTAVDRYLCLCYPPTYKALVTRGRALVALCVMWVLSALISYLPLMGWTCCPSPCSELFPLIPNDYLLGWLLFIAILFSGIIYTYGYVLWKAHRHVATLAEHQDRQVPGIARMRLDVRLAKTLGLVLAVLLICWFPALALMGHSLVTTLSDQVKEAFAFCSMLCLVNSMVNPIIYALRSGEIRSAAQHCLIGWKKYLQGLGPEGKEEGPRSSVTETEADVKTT

Cannabinoid receptor 1 (Rattus norvegicus, UniProt P20272), sequence (P20272 whole entry): as the sequence (P47746 whole entry) above, with D95E counted along it

CCCCCOc1c(OC)ccc2cc(C(=O)NCc3ccc4c(c3)OCO4)c(=O)[nH]c12 [N-(1,3-Benzodioxole-5-ylmethyl)-2-oxo-7-methoxy-8-pentoxy-1,2-dihydro-3-quinolinecarboxamide]
pKi (Cannabinoid receptor 1 [1]): 5.98
pKi (Cannabinoid receptor 2 [2]): 9.42
pKi (Cannabinoid receptor 1 [3]): 5.97
pKi (Cannabinoid receptor 2 [4]): 8.81

CCCCCc1cc(O)c2c(c1)OC(C)(C)[C@@H]1CCC(C)=CC21 (stereo partly specified) [Tetrahydrocannabinol]
pKi (Cannabinoid receptor 2 [4]): 8.76

Cc1c(C(=O)c2cccc3ccccc23)c2cccc3c2n1[C@H](CN1CCOCC1)CO3 [WIN55212-2]
pKi (Cannabinoid receptor 2 [4]): 9.25
